Calls of active or inactive are those of the source. How the calls were made is not given here.
Tested on: CCRIS mutagenicity, Ames/micronucleus/aberration tests
Experiment: CCRIS mutagenicity studies

Measured: mutagenic call

C=CC#N
active: Test System: AMES SALMONELLA TYPHIMURIUM, Strain/Indicator: TA1535, Metabolic Activation: HAMSTER LIVER S-9, AROCLOR 1254 (5, 10, OR 30%), Method: PREINCUBATION active; positive | Test System: AMES SALMONELLA TYPHIMURIUM, Strain/Indicator: TA1535, Metabolic Activation: HAMSTER, LIVER, S-9, AROCLOR 1254 (2.5-20%), Method: STANDARD PLATE active; positive | Test System: AMES SALMONELLA TYPHIMURIUM, Strain/Indicator: TA1535, Metabolic Activation: HAMSTER, LIVER, S-9, AROCLOR 1254 (10%), Method: STANDARD PLATE active; positive | Test System: AMES SALMONELLA TYPHIMURIUM, Strain/Indicator: TA1535, Metabolic Activation: HAMSTER, LIVER, S-9, AROCLOR 1254 (10, 20%), Method: PREINCUBATION active; positive | Test System: AMES SALMONELLA TYPHIMURIUM, Strain/Indicator: TA1535, Metabolic Activation: HAMSTER, LIVER, S-9, AROCLOR 1254 (20%), Method: STANDARD PLATE active; positive | Test System: AMES SALMONELLA TYPHIMURIUM, Strain/Indicator: TA1535, Metabolic Activation: MOUSE, LIVER, S-9, AROCLOR 1254, Method: LIQUID, VAPOR, SPOT active; positive | Test System: AMES SALMONELLA TYPHIMURIUM, Strain/Indicator: TA1535, Metabolic Activation: RAT LIVER S-9, AROCLOR 1254 (5%), Method: PREINCUBATION active; positive | Test System: AMES SALMONELLA TYPHIMURIUM, Strain/Indicator: TA1535, Metabolic Activation: RAT LIVER S-9, AROCLOR 1254 (5,10, OR 30%), Method: PREINCUBATION active; positive | Test System: AMES SALMONELLA TYPHIMURIUM, Strain/Indicator: TA1535, Metabolic Activation: RAT LIVER S-9, AROCLOR 1254 (10% OR 30%), Method: PREINCUBATION active; positive | Test System: AMES SALMONELLA TYPHIMURIUM, Strain/Indicator: TA1535, Metabolic Activation: RAT, LIVER, S-9, 3-METHYLCHOLANTHRENE OR PCB OR PHENOBARBITAL, Method: DESICCATOR active; positive | Test System: AMES SALMONELLA TYPHIMURIUM, Strain/Indicator: TA1538, Metabolic Activation: MOUSE, LIVER, S-9, AROCLOR 1254, Method: LIQUID, VAPOR, SPOT active; positive | Test System: AMES SALMONELLA TYPHIMURIUM, Strain/Indicator: TA1978, Metabolic Activation: MOUSE, LIVER, S-9, AROCLOR 1254, Method: VAPOR active; positive | Test System: E. COLI, Strain/Indicator: WP2, Metabolic Activation: NONE, Method: FLUCTUATION active; positive | Test System: E. COLI, Strain/Indicator: WP2, Metabolic Activation: NONE, Method: STANDARD PLATE active; positive | Test System: E. COLI, Strain/Indicator: WP2 UVRA, Metabolic Activation: NONE, Method: STANDARD PLATE active; positive | Test System: MOUSE LYMPHOMA, Strain/Indicator: L5178Y (TK+/TK-), Metabolic Activation: RAT, LIVER, S-9, Method: SUSPENSION/PLATE active; positive | Test System: MOUSE LYMPHOMA, Strain/Indicator: L5178Y(TK+/TK-)/TRIFLUOROTHYMIDINE, Metabolic Activation: NONE, Method: SUSPENSION PLATE active; positive | Test System: UDS RAT HEPATOCYTES, Strain/Indicator: THY INCORP, Metabolic Activation: NONE, Method: LIQUID SCINTILLATION COUNTING active; positive
inactive: Test System: AMES SALMONELLA TYPHIMURIUM, Strain/Indicator: TA1535, Metabolic Activation: NONE, Method: PREINCUBATION inactive; negative | Test System: AMES SALMONELLA TYPHIMURIUM, Strain/Indicator: TA1535, Metabolic Activation: NONE, Method: STANDARD PLATE inactive; negative | Test System: AMES SALMONELLA TYPHIMURIUM, Strain/Indicator: TA1535, Metabolic Activation: RAT, LIVER, S-9, AROCLOR 1254, Method: STANDARD PLATE inactive; negative | Test System: AMES SALMONELLA TYPHIMURIUM, Strain/Indicator: TA1537, Metabolic Activation: NONE, Method: STANDARD PLATE inactive; negative | Test System: AMES SALMONELLA TYPHIMURIUM, Strain/Indicator: TA1537, Metabolic Activation: RAT, LIVER, S-9, AROCLOR 1254, Method: STANDARD PLATE inactive; negative | Test System: AMES SALMONELLA TYPHIMURIUM, Strain/Indicator: TA1538, Metabolic Activation: NONE, Method: STANDARD PLATE inactive; negative | Test System: AMES SALMONELLA TYPHIMURIUM, Strain/Indicator: TA1538, Metabolic Activation: RAT, LIVER, S-9, AROCLOR 1254, Method: STANDARD PLATE inactive; negative | Test System: Ames Salmonella typhimurium, Strain/Indicator: YG7108pin3ERb5, Metabolic Activation: None, Method: Standard plate inactive; negative | Test System: CHINESE HAMSTER V-79, Strain/Indicator: V-79 (HGPRT)/8-AZAGUANINE, Metabolic Activation: NONE, Method: REPLATING inactive; negative | Test System: CHINESE HAMSTER V-79, Strain/Indicator: V-79 (HGPRT)/8-AZAGUANINE, Metabolic Activation: RAT, LIVER, S-9, AROCLOR 1254, Method: REPLATING inactive; negative | Test System: MOUSE LYMPHOMA, Strain/Indicator: L5178Y (TK+/+)/OUABAIN, Metabolic Activation: NONE, Method: SUSPENSION/PLATE inactive; negative | Test System: MOUSE LYMPHOMA, Strain/Indicator: L5178Y (TK+/+)/OUABAIN, Metabolic Activation: RAT LIVER S-9, AROCLOR 1254, Method: SUSPENSION/PLATE inactive; negative | Test System: UDS HUMAN MAMMARY EPITHELIAL CELLS, Strain/Indicator: THY INCORP, Metabolic Activation: NONE, Method: AUTORADIOGRAPHY inactive; negative | Test System: UDS PRIMARY RAT HEPATOCYTES, Strain/Indicator: THY INCORP, Metabolic Activation: NONE, Method: AUTORADIOGRAPHY inactive; negative | Test System: UDS PRIMARY RAT HEPATOCYTES, Strain/Indicator: THY INCORP, Metabolic Activation: NONE, Method: IN VIVO-IN VITRO inactive; negative | Test System: UDS PRIMARY RAT SPERMATOCYTES, Strain/Indicator: THY INCORP, Metabolic Activation: NONE, Method: IN VIVO-IN VITRO inactive; negative
